Results published in ChEMBL document CHEMBL1138760, “Conformationally constrained analogues of diacylglycerol (DAG). 23. Hydrophobic ligand-protein interactions versus ligand-lipid interactions of DAG-lactones with protein kinase C (PK-C)” (J Med Chem, 2004).

Experiments:
[1] = target: Protein kinase C delta type (Homo sapiens, UniProt Q05655); experiment: Binding affinity for isolated C1b domain of protein kinase C-delta
[2] = Binding affinity for protein kinase C-alpha C1a and C1b domains

Sequence of Protein kinase C delta type (Q05655 whole entry, the tested form may be a part): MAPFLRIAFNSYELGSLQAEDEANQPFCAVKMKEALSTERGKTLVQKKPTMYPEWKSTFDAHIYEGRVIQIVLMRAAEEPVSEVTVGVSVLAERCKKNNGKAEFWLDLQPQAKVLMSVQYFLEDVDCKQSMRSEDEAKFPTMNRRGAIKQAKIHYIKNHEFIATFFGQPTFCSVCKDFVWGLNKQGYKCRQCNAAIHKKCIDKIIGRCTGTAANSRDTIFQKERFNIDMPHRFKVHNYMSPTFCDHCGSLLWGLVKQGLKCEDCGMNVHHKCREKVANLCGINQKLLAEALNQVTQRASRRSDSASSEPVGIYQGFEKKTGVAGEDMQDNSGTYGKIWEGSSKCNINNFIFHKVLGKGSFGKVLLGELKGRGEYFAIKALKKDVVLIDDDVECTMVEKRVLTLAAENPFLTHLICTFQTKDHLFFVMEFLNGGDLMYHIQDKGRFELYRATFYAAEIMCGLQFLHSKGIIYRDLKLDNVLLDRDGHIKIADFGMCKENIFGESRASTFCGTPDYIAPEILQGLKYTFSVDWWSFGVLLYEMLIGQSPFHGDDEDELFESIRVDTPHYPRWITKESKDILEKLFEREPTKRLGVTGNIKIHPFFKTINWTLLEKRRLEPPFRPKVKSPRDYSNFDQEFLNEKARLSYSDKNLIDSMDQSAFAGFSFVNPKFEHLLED

Compound	Ki [1]	Ki [2]
CC(C)C(C/C=C1/C(=O)OC(CO)(COC(=O)C(C)(C)C)C1(C)C)C(C)C (stereo not drawn)	3470 nM	
CC(C)C(C/C=C1\CC(CO)(COC(=O)C(C)(C)C)OC1=O)C(C)C (stereo not drawn)		11.2 nM
CC(C)CC(C/C=C1\CC(CO)(COC(=O)C(C)(C)C)OC1=O)CC(C)C (stereo not drawn)	0.9 nM	3.25 nM
CC(C)C(C/C=C1/CC(CO)(COC(=O)C(C)(C)C)OC1=O)C(C)C (stereo not drawn)		8.32 nM
CC(C)C(C/C=C1\C(=O)OC(CO)(COC(=O)C(C)(C)C)C1(C)C)C(C)C (stereo not drawn)	1460 nM	
CC(C)CC(C/C=C1/CC(CO)(COC(=O)C(C)(C)C)OC1=O)CC(C)C (stereo not drawn)	1.16 nM	2.9 nM
